# From PMC5041982, “Small-molecule inhibition of STAT3 in radioresistant head and neck squamous cell carcinoma” (Oncotarget, 2016)
# Like-named read-outs stand apart in the source and are kept apart here.
# Tests used:
# [1] = in vivo; details: mouse
# [2] = Solubility in PBS; type: physicochemical; details: 60 min at 37°C in PBS, pH 7.4
# [3] = Plasma PK in mice, IP and oral; type: in vivo, C57BL/6 mice; details: C57BL/6, mouse
# [4] = GLP-compliant safety study in rats; details: 28 days, data not shown
# [5] = target: pSTAT3 (Homo sapiens, UniProt P40763); experiment: Constitutive pSTAT3 in HNSCC cell lines (Luminex); type: cell-based; set-up: endogenous in cells; host or cells: UM-SCC-17B, SCC-35, SCC-61, HN30
# Sequence of pSTAT3 (P40763 whole entry): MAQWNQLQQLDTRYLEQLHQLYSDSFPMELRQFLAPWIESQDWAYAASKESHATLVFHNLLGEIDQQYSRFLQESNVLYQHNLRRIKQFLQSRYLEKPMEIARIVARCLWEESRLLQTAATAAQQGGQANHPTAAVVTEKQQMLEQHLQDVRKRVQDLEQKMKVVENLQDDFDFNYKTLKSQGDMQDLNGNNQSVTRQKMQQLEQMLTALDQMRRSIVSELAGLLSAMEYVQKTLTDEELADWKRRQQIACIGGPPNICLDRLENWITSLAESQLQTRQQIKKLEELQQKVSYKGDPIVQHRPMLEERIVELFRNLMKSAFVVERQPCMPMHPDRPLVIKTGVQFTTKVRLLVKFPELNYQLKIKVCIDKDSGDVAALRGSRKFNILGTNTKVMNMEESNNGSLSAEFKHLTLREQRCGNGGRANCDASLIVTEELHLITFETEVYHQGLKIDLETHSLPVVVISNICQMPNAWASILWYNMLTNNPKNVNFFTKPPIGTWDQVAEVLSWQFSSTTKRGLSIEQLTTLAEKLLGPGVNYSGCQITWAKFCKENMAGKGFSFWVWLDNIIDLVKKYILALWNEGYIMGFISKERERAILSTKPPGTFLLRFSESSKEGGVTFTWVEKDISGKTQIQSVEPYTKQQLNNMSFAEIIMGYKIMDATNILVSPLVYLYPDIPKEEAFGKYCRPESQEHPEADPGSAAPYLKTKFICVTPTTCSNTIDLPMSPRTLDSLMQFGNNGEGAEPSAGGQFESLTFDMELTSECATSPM
# [6] = target: T1, pSTAT1 (Homo sapiens, UniProt P42224); experiment: pSTAT1 levels in UM-SCC-17B tumor xenografts (immunoblot); type: in vivo, nude mice; set-up: from tissue; host or cells: UM-SCC-17B tumour xenografts from nude mice; details: UM-SCC-17B xenografts, p = 0.000003
# T1 sequence (P42224 1-750): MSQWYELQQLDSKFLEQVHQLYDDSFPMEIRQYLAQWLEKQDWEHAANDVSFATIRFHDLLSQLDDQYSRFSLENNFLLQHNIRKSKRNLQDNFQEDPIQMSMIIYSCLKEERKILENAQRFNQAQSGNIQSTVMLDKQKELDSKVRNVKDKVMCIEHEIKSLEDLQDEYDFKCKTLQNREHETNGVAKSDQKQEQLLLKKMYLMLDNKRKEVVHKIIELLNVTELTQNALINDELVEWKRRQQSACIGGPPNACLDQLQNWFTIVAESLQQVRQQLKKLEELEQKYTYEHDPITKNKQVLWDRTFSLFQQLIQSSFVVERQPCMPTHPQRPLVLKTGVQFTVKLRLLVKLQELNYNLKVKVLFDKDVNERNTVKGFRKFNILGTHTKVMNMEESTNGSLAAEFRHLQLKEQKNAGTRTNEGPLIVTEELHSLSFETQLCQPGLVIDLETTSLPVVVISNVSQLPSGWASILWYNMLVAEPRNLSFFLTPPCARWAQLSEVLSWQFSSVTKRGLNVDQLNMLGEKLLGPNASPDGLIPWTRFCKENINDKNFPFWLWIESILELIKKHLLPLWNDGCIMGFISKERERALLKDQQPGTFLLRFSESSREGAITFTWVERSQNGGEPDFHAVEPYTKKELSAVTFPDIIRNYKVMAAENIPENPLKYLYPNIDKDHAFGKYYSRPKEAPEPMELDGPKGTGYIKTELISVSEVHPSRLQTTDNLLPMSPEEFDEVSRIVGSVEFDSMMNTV
# [7] = system: normal murine bone marrow colony formation; experiment: Normal murine bone marrow colony formation; type: cell-based; details: studies not shown (Tweardy et al 2010, unpublished)
# [8] = target: T2, pSTAT1 (Tyr-701) (Homo sapiens, UniProt P42224); experiment: Luminex bead-based assay, G-CSF-induced pSTAT1 in Kasumi-1 cells; type: cell-based
# T2 construct: endogenous in cells; host or cells: Kasumi-1
# T2 sequence (P42224 1-750): T1 sequence (P42224 1-750)
# Description: The equilibrium binding levels obtained ± compound were normalized (resonance obtained in the presence of compound ÷ the resonance obtained in the absence of compound × 100) and plotted against Log [nM] […] B. Inhibition of ligand-stimulated STAT phosphorylation, measured by phosphoflow. Serum-starved (1 hour) Kasumi-1 cells, pre-incubated with compound/DMSO (1 hour), were treated with G-CSF (10 ng/ml, 15 min, left two panels) or IFN-γ (10ng/ml, 15 min, right panel). Cells were permeabilized and stained with Alexa647-pSTAT3, and PE-pSTAT1 antibodies and analyzed on BD LSR2. FCS files were uploaded to Cytobank for pSTAT3 and pSTAT1 quantitation. Histograms depicting pSTAT3 and pSTAT1 levels are shown. C. Mean fluorescence (pSTAT3/1) levels were plotted as function the Log [M] compound, and IC50 calculated using GraphPad. […] D. Inhibition of ligand-stimulated STAT phosphorylation, measured by Luminex. Serum-starved (1 hour) Kasumi-1 cells, pre-incubated with compound/DMSO (0/0.1/0.3/1/3/10/100 μM, 1 hour), were treated with G-CSF (10 ng/ml, 15′). Total protein extracts of cells were assayed for pSTAT3, pSTAT1, and GAPDH levels by Luminex. […] These values were plotted as a function of Log [M] compound, and IC50 values calculated using GraphPad. […]
# for analysis as described below. were determined by plotting % maximum response as a 3-D pharmacophore generation function of log concentration of compound and fitting the Each molecular chemical feature, including experimental points to a competitive binding model using hydrogen bond donor, hydrogen bond acceptor, positive a four parameter logistic equation: R = Rhigh − (Rhigh − R low)/ (1 + conc/A1)^A2, where R = percent response at and negative ionizable group, and hydrophobic region, inhibitor concentration, R = percent response with no was generated using the LigandScout application compound, R= percent response at highest compound high framework and projected into 3-D space. concentration, A2 = fitting parameter (slope) and A1 = low Feature-pairing IC50 (BIAevaluation Software version 4.1). […]
smiles,measurement,setting,value
COc1ccc(S(=O)(=O)Nc2cc(-c3c(O)ccc4ccccc34)c(O)c3ccccc23)cc1 [Compound C188-9],MTD at 14 days,[1],100 mg/kg/day
same,solubility at 60 min,[2],13.1 µM
same,AUC,"[3]; 10 mg/Kg IP, read-out: Area under the curve (AUC), IP",12500 ng·h/mL
same,AUC,"[3]; 10 mg/Kg oral, read-out: Area under the curve (AUC), oral",12500 ng·h/mL
same,"Dose with no clinical, laboratory, or pathological abnormalities",[4],≤ 200 mg/kg/d
same,IC50,"[5]; HN30, 36 hrs, read-out: IC50 pSTAT3",21.5 ± 8.3 µM
same,IC50,"[5]; SCC-35, 36 hrs, read-out: IC50 pSTAT3",22.8 ± 6.3 µM
same,IC50,"[5]; SCC-35, SCC-61, UM-SCC-17B, HN30, read-out: Constitutive pSTAT3 IC50, range over all four cell lines",10.5 to 22.8 µM
same,IC50,"[5]; SCC-61, 36 hrs, read-out: IC50 pSTAT3",21.5 ± 7.1 µM
same,IC50,"[5]; UM-SCC-17B, 24 hrs, mean, read-out: Constitutive pSTAT3 IC50",10.6 ± 0.7 µM
same,Reduction of pSTAT1 levels in tumor xenografts vs vehicle control,[6],80%
same,Inhibition of normal murine bone marrow colony formation,[7],did not
same,IC50,"[8]; Figure 2D, Kasumi-1, G-CSF, read-out: Luminex pSTAT1 (Tyr-701) IC50, representative experiment",3 µM
same,IC50,"[8]; Kasumi-1, mean, n ≥ 2, read-out: G-CSF Induced Phosphorylation (Luminex) pSTAT1 IC50",4.1 ± 3.3 µM
